{"source": "patent EP4122459A1", "about": "“COMPOSITION FOR PREVENTING AND TREATING NAIL ALTERATIONS AND DISEASES” (Giuliani S.p.A., priority 2021, dated 2023)", "system": "HACAT cells", "experiment": "In vitro cell proliferation test (MTT assay) on HACAT cells", "assay_type": "cell-based, human", "details": "48h, highest concentrations: Cocoa 16µg/mL, Zinc 4µg/mL", "description": "The MTT assay (3-(4,5-dimethylthiazol-2-yl)-2,5-diphenyltetrazolium bromide) is a colorimetric assay used to evaluate in vitro cell proliferation, as it allows to measure proliferation and cell viability through the evaluation of mitochondrial activity (Mosmann et al., 1983). This method is very useful to measure cell growth following treatment with mitogenic agents, antigenic stimuli, growth factors and for cytotoxicity studies. […] Formazan forms crystals, insoluble in the intracellular environment, to which the membranes are substantially impermeable: the molecule can therefore enter the cell, but the product cannot exit if it has been correctly metabolized, that is if the electron transport chains are still metabolically active. The formazan crystals are subsequently solubilized in dimethyl sulfoxide (DMSO), thus causing the solution to color change from yellow to dark blue-violet. The assay was carried out following the method by Mosmann (1983), with some minor modifications. […] The absorbance of the colored solution was measured using a spectrophotometric reader for microplates (BioTek Instruments Inc., BadFriedrichshall, Germany) at a wavelength of 570 nm (reference wavelength at 630 nm). The data were expressed as a percentage of cell viability compared to control cells (ctr), according to the following formula: % cell viability/ctr = (Abssample/Absctr)*100. […]", "data": [{"substance": "Zinc", "values": [{"measurement": "cytotoxic activity on HACAT cells", "result": "significant (p<0.05) cytotoxic activity"}]}]}
